This is an account of results in US20260306476A1, “ANTIBACTERIAL COMPOUND PBT2” (priority 2022, published 2026).

In general, MIC refers to the smallest concentration in the dilution series that meets the test's criterion for growth inhibition.

In series [1] the test system is Campylobacter jejuni 81-176. Description: MIC of PBT2 alone (broth). It counts as cell-based. Particulars: 81176. The procedure: (§1) The MIC of PBT2 against three Campylobacter jejuni strains was determined. All strains tested were sensitive to PBT2.
The subject of series [2] is Campylobacter jejuni ATCC 33560. Description: MIC of PBT2 alone (broth). It counts as cell-based. The note with it: ATCC33560. The method, then: as §1
The subject of series [3] is Campylobacter jejuni NCTC 11168. Description: MIC of PBT2 alone (broth). It counts as cell-based. The note with it: NCTC11168. The method, then: as §1
In series [4] the test system is Helicobacter pylori 26695. In words: MIC of PBT2 alone (agar). It counts as cell-based. The method, then: (§2) The MIC of PBT2 against four Helicobacter pylori 26695 strains was determined. The strains tested were sensitive to PBT2.
In series [5] the test system is Helicobacter pylori. In words: Sensitivity across Helicobacter pylori strains. It counts as cell-based. Particulars: strains tested. The procedure: as §2
Series [6] has as its system Neisseria gonorrhoeae WHO Z. Description: Time-kill assay. It counts as cell-based. The note with it: PBT2 alone at 0.313 mg/L (MIC). The source says: FIG. 1: Time-kill curves of Neisseria gonorrhoeae WHO Z in GC broth with or without PBT2. Error bars indicate standard deviation from 3 biological replicates.
Series [7] relates to Neisseria gonorrhoeae strain WHO Z. Description: Ex vivo Neisseria gonorrhoeae infection of human cervical (Pex) cells. It counts as cell-based. The text has this:
FIG. 4: Chart indicating PBT2 can cure Neisseria gonorrhoeae infection of human cervical (Pex) cells. […] Ceftriaxone (CRO, positive control) is currently recommended for gonorrhoea treatment. Veh—0.1% DMSO vehicle control; UT—untreated; * p<0.0001 versus vehicle for CRO or PBT2 treatment.
(§3) To assess the ability of PBT2 to cure an established gonococcal infection in a human ex vivo system, primary human cervical epithelial (Pex) cells were challenged with Neisseria gonorrhoeae strain WHO Z for 90 min and then treated with 0.1% DMSO (vehicle control), PBT2 (0.016 mg/L to 4.695 mg/L), or ceftriaxone (0.5 mg/L, positive control) for 24 h. Viable gonococci were then enumerated. […] PBT2-induced Pex cell cytotoxicity was not observed during the assay.

In series [8] the test system is primary human cervical epithelial (Pex) cells. In words: PBT2-induced Pex cell cytotoxicity. It counts as cell-based. The note with it: PBT2 0.016 to 4.695 mg/L; 24 h. The procedure:
as §3

Series [9] deals with vancomycin-resistant Enterococcus (VRE). Particulars: in the absence of an antibiotic; cited from earlier work.
Series [10] concerns Neisseria meningitidis PMC1 (X). Description: MIC of PBT2 (broth and agar).

Some results are limits rather than exact numbers.

Regarding `CN(C)Cc1ccc2c(Cl)cc(Cl)c(O)c2n1` [PBT2, 5,7-dichloro-2-[(dimethylamino)methyl]quinolin-8-ol], the MIC is 0.156 µg/mL in series [1]; 0.156 µg/mL in series [2]; 0.313 µg/mL in series [3]; 1.25 µg/mL in [4]; 0.039 µg/mL in series [10]. For the same compound, in [5], the sensitivity result is recorded as “sensitive”. Besides, the “time in which antibacterial activity occurred” value in series [6] is reported as no more than 3 h. In addition, in series [7] (24 h post-treatment, PBT2 0.016 to 4.695 mg/L, FIG. 4), the “reduction in Neisseria gonorrhoeae survival” value is recorded as “dose-dependent reduction”. The “effectiveness versus ceftriaxone (0.5 mg/L)” value in series [7] (>0.157 mg/L PBT2, 24 h) is “comparable effectiveness to that observed for the control antibiotic, ceftriaxone”. The p versus vehicle in [7] (survival at 24 h, FIG. 4, CRO 0.5 mg/L) is given as less than 0.0001. Further, the “PBT2-induced Pex cell cytotoxicity” value in [8] is listed as “not observed”. Also, the antibacterial activity result in series [9] is “neither PBT2 nor zinc alone displayed antibacterial activity which would be suitable to treat an infection”.
